33 compounds from patent US10590118B2, “Bicyclic heterocyclic derivatives as bromodomain inhibitors” (Orion Corporation, priority 2014, dated 2020) can be followed below.

Each structure is given as a SMILES string.

The target of this assay is T1, Bet bromodomain protein (BRD4) (Homo sapiens, UniProt O60885).
T1 construct: made in house
Briefly: Bet bromodomain TR-FRET assay. It is filed as binding. The conditions noted are these: 300 nM acetyl histone peptide substrate, results given as Group A/B/C. How it is done: In-Vitro Biochemical Data of bicyclic heterocyclic derivatives in time-resolved fluorescence resonance energy transfer (TR-FRET) assay.
The Bet brommodomain TR-FRET assay has been used to identify compounds that bind to bet bromodomain and prevent its interaction with acetylated histone peptides.
In the assay, optimized concentration of in-house Bet bromodomain protein (BRD4) and 300 nM of acetyl histone peptide substrate were diluted in assay buffer (50 mM HEPES, pH: 7.5, 50 mM NaCl, 500 μM CHAPS) and were added to the positive control and test control wells in a 384 well plate. Substrate control wells have 300 nM of acetyl histone peptide substrate diluted in assay buffer. Buffer blank wells were added with assay buffer. The reaction mixture was allowed for incubation at room temperature for 30 mins. Stock solutions of test compounds at 20 mM DMSO are prepared. Compounds are serially diluted and added to the test wells in 384-well polypropylene plates. The reaction mixture was further incubated for 30 mins at room temperature on a plate shaker. 2 nM of Europium labeled streptavidn and 10 nM of XL-665 labeled antibody diluted in detection buffer (50 mM HEPES, pH: 7.5, 50 mM NaCl, 500 μM CHAPS and 800 mM KF) were added to all the wells excluding the buffer blank wells. The reaction plate was incubated for additional 30 mins at room temperature on plate shaker. The plate was read in Perkin Elmer WALLAC 1420 Multilabel Counter Victor 3 (Ex: 340 nm Em: 615 and 665 nm). The amount of displacement of the peptide was measured as ratio of specific 665 nm energy transfer signal to 615 nm signals. The compounds IC50 was determined by fitting the dose response data to sigmoid curve fitting equation using Graph Pad Prism software V5.

Consider `COc1cc2c(cc1-c1c(C)noc1C)OCC(=O)N2CC1CCOCC1` [Compound 23, 7-(3,5-dimethytisoxazol-4-yl)-6-methoxy-4-((tetrahydro-2H-pyran-4-yl)methyl)-2H-benzo[b][1,4]oxazin-3(4H)-one], for which the IC50 is ≤ 1000 nM.

In turn, `Cc1noc(C)c1-c1cc2ccc(=O)n(Cc3ccccn3)c2cc1OCCC1CCNCC1` [Compound 88, 6-(3,5-dimethylisoxazol-4-yl)-7-(2-(piperidin-4-yl)ethoxy)-1-(pyridin-2-ylmethyl)quinolin-2(1H)-one] came in with an IC50 of 1000 to 3000 nM.

For the compound `Cc1noc(C)c1-c1cc2ccc(=O)n(Cc3ccc(Cl)cn3)c2cc1O` [Compound 73, 1-((5-chloropyridin-2-yl)methyl)-6-(3,5-dimethylisoxazol-4-yl)-7-hydroxyquinolin-2(1H)-one], the IC50 is ≤ 1000 nM.

As for `COc1cc2c(cc1-c1c(C)noc1C)c(C#N)c(C)c(=O)n2CCc1ccc(Cl)cc1` [Compound 105, 1-(4-chlorophenethyl)-6-(3,5-dimethylisoxazol-4-yl)-7-methoxy-3-methyl-2-oxo-1,2-dihydroquinoline-4-carbonitrile], the IC50 is > 3000 nM.

For `COc1cc2c(ccc(=O)n2Cc2ncccn2)cc1-c1c(C)noc1C` [Compound 43, 6-(3,5-dimethylisoxazol-4-yl)-7-methoxy-1-(pyrimidin-2-ylmethyl)quinolin-2(1H)-one], the IC50 was ≤ 1000 nM.

As to `COc1cc2c(cc1-c1c(C)noc1C)cc(CF)c(=O)n2Cc1ccccn1` [Compound 97, 6-(3,5-dimethylisoxazol-4-yl)-3-(fluoromethyl)-7-methoxy-1-(pyridin-2-ylmethyl)quinolin-2(1H)-one], the IC50 is ≤ 1000 nM.

In the case of `COc1cc2c(cc1NC(=O)c1c(C)noc1C)OCC(=O)N2Cc1ccc(Cl)cc1` [Compound 94, N-(4-(4-chlorobenzyl)-6-methoxy-3-oxo-3,4-dihydro-2H-benzo [b][1,4]oxazin-7-yl)-3,5-dimethylisoxazole-4-carboxamide], the IC50 was > 3000 nM.

As for `COc1ccc(CN2C(=O)COc3cc(-c4c(C)noc4C)c(OC)cc32)cn1` [Compound 26, 7-(3,5-dimethylisoxazol-4-yl)-6-methoxy-4-((6-methoxypyridin-3-yl)methyl)-2H-benzo[b][1,4]oxazin-3(4H)-one], the IC50 was ≤ 1000 nM.

Take `COc1cc2c(cc1-c1c(C)noc1C)OC(C)(C)C(=O)N2Cc1cccnc1` [Compound 49, 7-(3,5-dimethylisoxazol-4-yl)-6-methoxy-2,2-dimethyl-4-(pyridin-3-ylmethyl)-2H-benzo[b][1,4]oxazin-3(4H)-one]: the IC50 was ≤ 1000 nM.

Turning to `COc1cc2c(ccc(=O)n2Cc2ccc(Cl)cc2)cc1-c1c(C)noc1C` [Compound 56, 1-(4-chlorobenzyl)-6-(3,5-dimethylisoxazol-4-yl)-7-methoxyquinolin-2(1H)-one], the IC50 was ≤ 1000 nM.

Regarding `COc1cc2c(cc1Nc1c(C)noc1C)OCC(=O)N2Cc1ccc(Cl)cc1` [Compound 95, 4-(4-chlorobenzyl)-7-((3,5-dimethylisoxazol-4-yl)amino)-6-methoxy-2H-benzo[b][1,4]oxazin-3(4H)-one], the IC50 is > 3000 nM.

As to `Cc1noc(C)c1-c1cc2ccc(=O)n(Cc3ccccn3)c2cc1OCC1CCNCC1` [Compound 77, 6-(3,5-dimethylisoxazol-4-yl)-7-(piperidin-4-ylmethoxy)-1-(pyridin-2-ylmethyl)quinolin-2(1H)-one], the IC50 is ≤ 1000 nM.

`COc1cc2c(cc1-c1c(C)noc1C)OCC(=O)N2Cc1ccc(C#N)cn1` [Compound 27, 6-((7-(3,5-dimethylisoxazol-4-yl)-6-methoxy-3-oxo-2H-benzo[b][1,4]oxazin-4(3H)-yl)methyl)nicotinonitrile] showed an IC50 of 1000 to 3000 nM.

In the case of `COc1cc2c(cc1-c1c(C)noc1C)ncc(=O)n2Cc1ccc(Cl)cc1` [Compound 4, 1-(4-chlorobenzyl)-6-(3,5-dimethylisoxazol-4-yl)-7-methoxyquinoxalin-2(1H)-one], the 50% inhibitory concentration (IC50) was ≤ 1000 nM.

Consider `CCC(=O)N1CCC(CN2C(=O)COc3cc(-c4c(C)noc4C)c(OC)cc32)CC1` [Compound 90, 7-(3,5-dimethylisoxazol-4-yl)-6-methoxy-4-((1-propionylpiperidin-4-yl)methyl)-2H-benzo[b][1,4]oxazin-3(4H)-one], for which the IC50 is ≤ 1000 nM.

As to `COc1cc2c(cc1-c1c(C)noc1C)OCC(=O)N2Cc1cccnc1` [Compound 21, 7-(3,5-dimethylisoxazol-4-yl)-6-methoxy-4-(pyridin-3-ylmethyl)-2H-benzo[b][1,4]oxazin-3(4H)-one], the IC50 is ≤ 1000 nM.

Take `Cc1noc(C)c1-c1cc2ccc(=O)n(Cc3ccccn3)c2cc1OCCCO` [Compound 84, 6-(3,5-dimethylisoxazol-4-yl)-7-(3-hydroxypropoxy)-1-(pyridin-2-ylmethyl)quinolin-2(1H)-one]: the IC50 is ≤ 1000 nM.

Consider `COc1cc2c(cc1-c1c(C)noc1C)C(=O)C(C)(C)C(=O)N2Cc1ccccn1` [Compound 51, 6-(3,5-dimethylisoxazol-4-yl)-7-methoxy-3,3-dimethyl-1-(pyridin-2-ylmethyl)quinoline-2,4(1H,3H)-dione], for which the IC50 lay within 1000 to 3000 nM.

As for `Cc1noc(C)c1-c1cc2ccc(=O)n(Cc3ccccn3)c2cc1O` [Compound 72, 6-(3,5-dimethylisoxazol-4-yl)-7-hydroxy-1-(pyridin-2-ylmethyl)quinolin-2(1H)-one], the IC50 was ≤ 1000 nM.

In the case of `COc1cc2c(cc1-c1c(C)noc1C)c(C1CC1)cc(=O)n2Cc1ccccn1` [Compound 55, 4-cyclopropyl-6-(3,5-dimethytisoxazol-4-yl)-7-methoxy-1-(pyridin-2-ylmethyl)quinolin-2(1H)-one], the concentration for half-maximal inhibition (IC50) is ≤ 1000 nM.

Regarding `COc1cc2c(ccc(=O)n2Cc2ccccn2)cc1-c1c(C)n[nH]c1C` [Compound 66, 6-(3,5-dimethyl-1H-pyrazol-4-yl)-7-methoxy-1-(pyridin-2-ylmethyl)quinolin-2(1H)-one], the IC50 was ≤ 1000 nM.

On to `Cc1noc(C)c1-c1cc2ccc(=O)n(Cc3ccccn3)c2cc1OCCO` [Compound 80, 6-(3,5-dimethylisoxazol-4-yl)-7-(2-hydroxyethoxy)-1-(pyridin-2-ylmethyl)quinolin-2(1H)-one], for which the IC50 was ≤ 1000 nM.

Take `COc1cc2c(ccc(=O)n2Cc2ccccn2)cc1-c1c(C2CC2)noc1C` [Compound 62, 6-(3-cyclopropyl-5-methylisoxazol-4-yl)-7-methoxy-1-(pyridin-2-ylmethyl)quinolin-2(1H)-one]: the IC50 was ≤ 1000 nM.

With `COc1cc2c(cc1-c1c(C)noc1C)OCC(=O)N2Cc1ccc(Cl)cn1` [Compound 28, 4-((5-chloropyridin-2-yl)methyl)-7-(3,5-dimethylisoxazol-4-yl)-6-methoxy-2H-benzo[b][1,4]oxazin-3(4H)-one], the IC50 is ≤ 1000 nM.

In the case of `COc1cc2c(cc1-c1c(C)noc1C)OCC(=O)N2Cc1ccccn1` [Compound 22, 7-(3,5-dimethytisoxazol-4-yl)-6-methoxy-4-(pyridin-2-ylmethyl)-2H-benzo[b][1,4]oxazin-3(4H)-one], the half-inhibitory concentration (IC50) is ≤ 1000 nM.

Consider `COc1cc2c(cc1-c1c(C)noc1C)OCCN2S(=O)(=O)c1cccnc1` [Compound 12, 7-(3,5-dimethylisoxazol-4-yl)-6-methoxy-4-(pyridin-3-ylsulfonyl)-3,4-dihydro-2H-benzo[b][1,4]oxazine], for which the IC50 lay within 1000 to 3000 nM.

Turning to `COc1cc2c(ccc(=O)n2Cc2ncccc2F)cc1-c1c(C)noc1C` [Compound 9, 6-(3,5-dimethylisoxazol-4-yl)-1-((3-fluoropyridin-2-yl)methyl)-7-methoxyquinolin-2(1H)-one], the IC50 is ≤ 1000 nM.

`COc1cc2c(ccc(=O)n2Cc2ccccn2)cc1-c1cnoc1C` [Compound 63, 7-methoxy-6-(5-methylisoxazol-4-yl)-1-(pyridin-2-ylmethyl)quinolin-2(1H)-one]: the 50% inhibitory concentration (IC50) was > 3000 nM.

With `COc1cc2c(cc1-c1c(C)noc1C)OCC(=O)N2Cc1ccncc1` [Compound 17, 7-(3,5-dimethylisoxazol-4-yl)-6-methoxy-4-(pyridin-4-ylmethyl)-2H-benzo[b][1,4]oxazin-3(4H)-one], the IC50 is ≤ 1000 nM.

Turning to `COc1cc2c(ccc(=O)n2Cc2ccc3ccccc3n2)cc1-c1c(C)noc1C` [Compound 57, 6-(3,5-dimethylisoxazol-4-yl)-7-methoxy-1-(quinolin-2-ylmethyl)quinolin-2(1H)-one], the IC50 lay in the range of 1000 to 3000 nM.

On to `COc1cc2c(cc1-c1c(C)noc1C)cc(C(O)C(F)(F)F)c(=O)n2Cc1ccccn1` (racemic) [Compound 101, 6-(3,5-dimethylisoxazol-4-yl)-methoxy-1-(pyridin-2-ylmethyl)-3-(2,2,2-trifluoro-1-hydroxyethyl)quinolin-2(1H)-one], for which the IC50 was ≤ 1000 nM.

As for `COc1cc2c(ccc(=O)n2C(=O)c2ccc(Cl)cc2)cc1-c1c(C)noc1C` [Compound 15, 1-(4-chlorobenzoyl)-6-(3,5-dimethylisoxazol-4-yl)-7-methoxyquinolin-2(1H)-one], the IC50 was > 3000 nM.

For `COc1cc2c(ccc(=O)n2Cc2ccccn2)cc1-c1c(C)noc1C` [Compound 46, 6-(3,5-dimethylisoxazol-4-yl)-7-methoxy-1-(pyridin-2-ylmethyl)quinolin-2(1H)-one], the IC50 is ≤ 1000 nM.
